pIC50: −log10 of the molar value.
Tested on: 845751-090-R-J2-PDC tumor spheroid viability
Assay: Anticancer human tumor 845751-090-R-J2-PDC patient-derived head and neck squamous carcinoma cell line growth inhibition [IpAb]
Settings: spheroids with HUVEC and MSC; for pIC50: curve of first compound; for viability, T/C: stronger effect = lower value
Excerpt: Combinatorial screen of targeted agents with ipatasertib and abemaciclib in multi-cell type tumor spheroids
A high-throughput screen of multi-cell type tumor spheroids was designed to identify active combinations of targeted small molecules and ipatasertib or abemaciclib. Complex spheroids include a stromal component modeled by human endothelial cells (HUVEC) and fibroblasts modeled by human mesenchymal stem cells (MSCs). The concentration ranges selected for each drug and investigational agent were based upon clinically achievable concentrations if the clinical Cmax of the agent was known.
Compounds. The drugs and investigational agents: ipatasertib (NSC767898), abemaciclib(NSC768073), selumetinib (NSC741078), trametinib (758246), adavosertib (NSC754352), everolimus (NSC733504), sapanisertib (NSC764658), vemurafenib (NSC761431), venetoclax (NSC766270), copanlisib (NSC809693), apelisib (NSC765974), palbociblib (NSC758247), vemurafenib (NSC761431), dabrafenib (NSC764134), ravoxertinib (NSC781343), BMS-387032 (NSC767048), sotorasib (NSC818433), talazoparib (NSC767125) and afursertib (NSC778305), were obtained from the National Cancer Institute (NCI) Developmental Therapeutics Program Chemical Repository. The FDA-approved anticancer drug set is available from the NCI Developmental Therapeutics Program. […] The stock solutions were prepared in dimethyl sulfoxide (DMSO, Sigma-Aldrich, St. Louis, MO, cat. D2650) at 800-fold the tested concentration and stored at -70 degrees C prior to their use. All drugs and investigational agents were tested over a range starting from a high concentration at or near the clinical Cmax and decreasing in half-log increments. If the clinical Cmax for an agent had not been determined, the highest concentration tested was 10 microM.
NCI60 Cell Culture. NCI60 cell lines were obtained from the NCI Developmental Therapeutics Program Tumor Repository. For each lot of cells, the Repository performed Applied Biosystems AmpFLSTR Identifiler testing with PCR amplification to confirm consistency with the published Identifier STR profile for each cell line. Cells were kept in continuous culture for no more than 20 passages. The optimal seeding densities for each of the cell lines at each time point assessed were determined prior to performing the concentration response studies. Briefly, the NCI60 human tumor lines were grown as monolayers in RPMI 1640 medium supplemented with 10% FBS and 2 mmol/L L-glutamine.
An additional 9 lines were from the NCI60 cell line panel including MDA-MB-231 breast carcinoma, MDA-MB-468 breast carcinoma, MCF7 breast carcinoma, Hs578T breast carcinoma, MALME-3M melanoma, SK-MEL-2 melanoma, SK-OV-3 ovarian carcinoma, DU-145 prostate carcinoma, PC-3 prostate carcinoma, all cell lines along with major genetic alterations are listed on Table 2. Pooled donor human umbilical vein endothelial cells (HUVEC, Lonza, cat. CC-2519) and human mesenchymal stem cells (hMSC, Lonza, cat. PT-2501) were purchased from Lonza (Walkersville, MD).
PDMR cell lines were grown in complete medium (DC medium): Dulbecco's modified Eagle's medium (DMEM)/F12 supplemented with 5% fetal bovine serum (FBS), 2 mM L-glutamine, 100 U/mL penicillin and 100 µg/ml streptomycin, 0.4 µg/ml hydrocortisone, 10 ng/ml epidermal growth factor (EGF) recombinant human protein, 24 µg/mL adenine, and 0.1 mg/mL primocin. During culture from frozen stock vials, PDMR cells were cultured in the same medium containing 10 µM Y-27632 (see Table 3). The PDCs were cultured in complete DMEM/F12 media without 10 microM Y-27632 dihydrochloride for at least two passages prior to the screen. The pooled donor HUVEC and hMSC were cultured in endothelial cell growth medium 2 (PromoCell, Heidelberg, Germany, cat. C-22011) and mesenchymal stem cell growth medium 2 (PromoCell, cat. C-28009), respectively. For all experiments, HUVEC and hMSC were used at passages </=5.
[…]
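Also: spheroids exposed to compounds for 7 days before readout.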
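For viability, T/C in this document: CTG3D luminescence normalised so that 100% = DMSO vehicle control.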

SMILES: Cn1cnc2c(F)c(Nc3ccc(Br)cc3Cl)c(C(=O)NOCCO)cc21 + CCN1CCN(Cc2ccc(Nc3ncc(F)c(-c4cc(F)c5nc(C)n(C(C)C)c5c4)n3)nc2)CC1
- pIC50 (second compound 0.01 µM): < 5.52
- pIC50 (second compound 0.0316 µM): < 5.52
- pIC50 (second compound 0.1 µM): < 5.52
- pIC50 (second compound 0.316 µM): < 5.52
- pIC50 (second compound 1 µM): < 5.52
- viability, T/C (second compound 0.01 µM, first compound 0.00949 µM): 198%
- viability, T/C (second compound 0.01 µM, first compound 0.03 µM): 194%
- viability, T/C (second compound 0.01 µM, first compound 0.0949 µM): 139%
- viability, T/C (second compound 0.01 µM, first compound 0.3 µM): 129%
- viability, T/C (second compound 0.01 µM, first compound 0.949 µM): 109%
- viability, T/C (second compound 0.01 µM, first compound 3 µM): 69.8%
- viability, T/C (second compound 0.0316 µM, first compound 0.00949 µM): 171%
- viability, T/C (second compound 0.0316 µM, first compound 0.03 µM): 148%
- viability, T/C (second compound 0.0316 µM, first compound 0.0949 µM): 125%
- viability, T/C (second compound 0.0316 µM, first compound 0.3 µM): 107%
- viability, T/C (second compound 0.0316 µM, first compound 0.949 µM): 89.3%
- viability, T/C (second compound 0.0316 µM, first compound 3 µM): 71.5%
- viability, T/C (second compound 0.1 µM, first compound 0.00949 µM): 147%
- viability, T/C (second compound 0.1 µM, first compound 0.03 µM): 137%
- viability, T/C (second compound 0.1 µM, first compound 0.0949 µM): 135%
- viability, T/C (second compound 0.1 µM, first compound 0.3 µM): 106%
- viability, T/C (second compound 0.1 µM, first compound 0.949 µM): 82.3%
- viability, T/C (second compound 0.1 µM, first compound 3 µM): 63.8%
- viability, T/C (second compound 0.316 µM, first compound 0.00949 µM): 163%
- viability, T/C (second compound 0.316 µM, first compound 0.03 µM): 150%
- viability, T/C (second compound 0.316 µM, first compound 0.0949 µM): 136%
- viability, T/C (second compound 0.316 µM, first compound 0.3 µM): 128%
- viability, T/C (second compound 0.316 µM, first compound 0.949 µM): 101%
- viability, T/C (second compound 0.316 µM, first compound 3 µM): 97.2%
- viability, T/C (second compound 1 µM, first compound 0.00949 µM): 159%
- viability, T/C (second compound 1 µM, first compound 0.03 µM): 167%
- viability, T/C (second compound 1 µM, first compound 0.0949 µM): 138%
- viability, T/C (second compound 1 µM, first compound 0.3 µM): 114%
- viability, T/C (second compound 1 µM, first compound 0.949 µM): 107%
- viability, T/C (second compound 1 µM, first compound 3 µM): 64%
